Measurements published in patent US6521633B2, “Treating NIDDM with RXR agonists” (Ligand Pharmaceuticals Incorporated, priority 1995, dated 2003).

Key:
[1] = system: 3T3-LI cells; test: Oil red O staining of differentiating 3T3-LI adipocytes; format: cell-based, mouse; conditions: for Percent of Differentiated Cells: 3T3-L1, BRL 49653 and LG 100268 at 1 μM; for Percent of Differentiated Cells / cells induced to differentiate into adipocytes: insulin at 0.01 mg/ml; for cells induced to differentiate into adipocytes: BRL 49653 and retinoid at 1 μM
Excerpt: They are contact inhibited and can be induced to differentiate into adipocyte cells containing large lipid droplets within the cytoplasm. Adipocyte differentiation can be observed by oil red O staining which stains the lipid droplets within the cytoplasm red. The extent of adipocyte differentiation can then be monitored by microscope observation.

[2] = system: C3H/10T1/2 cells; test: Oil red O staining of C3H/10T1/2 cells; format: cell-based, mouse; conditions: for Experiment B (+BRL + Insulin) % differentiated cells / Experiment A (+BRL) % differentiated cells: 7 days; for effect on differentiation induced by BRL 49653 or BRL/insulin: in combination with BRL 49653
[3] = system: 3T3-LI cells; test: 96-well plate triglyceride accumulation assay in differentiating adipocytes; format: cell-based, mouse; conditions: for triglyceride accumulation: retinoids and BRL 49653 at 1 μM, insulin at 0.01 mg/ml, alone or all together; for triglyceride accumulation on addition of retinoid with BRL 49653: retinoid 1 μM with BRL 49653 1 μM
Excerpt: For a more quantitative assay and rapid screening of compounds, a 96-well plate assay was developed to quantitate the amount of triglyceride produced by the differentiating adipocytes. […] The level of triglyceride accumulation can then be measured via an enzymatic color reaction which can be read in a plate reader. The retinoid modulation of lipid formation was quantitated by monitoring triglyceride formation.

[4] = system: 3T3-L1 cells; test: Insulin stimulated labeled 2-deoxyglucose uptake assay; format: cell-based, mouse; conditions: 3T3-L1 treated 10 days; BRL 49653 or LG 100268 (1 μM); insulin 0.01 mg/ml for 5 days; normalized to total cellular protein
Description: A fourth indicator for the utility of a compound in treating NIDDM or insulin-resistant diabetes is the compound's, ability to enhance insulin-stimulated glucose uptake. Labeled 2-deoxyglucose (2-DOG, a glucose analog) assay was performed with a preadipocyte cell line in the presence of insulin and a candidate compound to measure the level of 2-DOG incorporation.
A murine preadipocyte cell line, 3T3-L1, is widely used to study glucose uptake, adipogenesis, and has been used in the characterization of thiazolidinediones and other PPARγ activators.
Insulin was added to the cells at a concentration of 0.01 mg/ml for 5 days, thereafter no insulin was added. […] The level of incorporated labeled 2-DOG was normalized to the amount of total cellular protein.

[5] = system: db/db mice; test: In vivo experiment with db/db mice; conditions: for increase of HDL-cholesterol levels in comparison to controls: BRL 49653, or combination, terminal serum, precipitation method; for lowering of the level of glucose in comparison to control: BRL 49653 1 mg/kg, LG 100268 20 mg/kg, or combination
Description: Animals: Strain Diabetic C57BLKS/Jm+/+db, 82 mice
Mice were identified by an ear punch code (#1-82) and separated into 8 groups (A-H). Each group consisted of 10 mice separated into 4 cages with 2-3 mice/cage. […] Control group C consisted of 12 mice. […] Food and water were provided ad libitum. Food intake/cage was measured over selected periods and expressed as g food consumed/100 g mouse/day.
(§1) On days of study, food was removed from the cages at selected intervals of time between 6:15 and 7:00 AM. Animal weights were recorded 2 h after start of fast and blood samples taken after a 3 h fast. Blood was drawn from a cut at the tip of the tail and collected into a heparinized capillary tube (approx. 75 μl volume). After centrifugation, the hematocrit was read in a microcapillary reader, recorded and the tube broken for recovery of plasma for analysis of glucose, triglyceride and insulin concentration.
Blood samples were collected on days 0−1,0, 3, 7, 10, and on the final day of study, days 13-15. […] The various solutions were gavaged daily to their respective groups based on the animals weight taken that morning or the weight of the animal taken on the preceding day of weighing. To assess alterations in plasma FFA, on day 10 an addition 75 μl blood sample was collected into an EDTA-coated capillary tube immediately after collecting the basal heparinized capillary tube sample.
On the final day of study, mice were not gavaged with test solution. The last gavage was administered on the day preceding the final day, i.e., day 12 for animals terminated on day 13, day 13 for animals terminated on day 14 and day 14 for animals terminated on day 15. Terminal blood was collected by decapitation to provide serum for assessment of HDL.

[6] = system: ob/ob mice; test: In vivo experiment with ob/ob mice; conditions: mouse
Description: Each group consisting of 10 mice.
as §1
Blood samples were collected on days 0−3, 0, 3, 6, 8, 10, 14±1 and final collections were made on days 15, 16 or 17. FFA samples were collected on day 10 by drawing a second 75 μl blood sample in a non-heparinized tube coated with EDTA. This tube was collected immediately after the heparinized tube collection.
Animals in groups H were administered control gavage solution (0.6 ml/42 g) daily commencing on day 0 and ending on the day preceding the final day. 11 test solutions were administered to animals in groups designated A-G, I-L. All gavage solutions were administered after refeeding on days in which mice were fasted for blood sampling.

[7] = system: LPL (lipoprotein lipase) mRNA and PPARγ mRNA; test: Northern blot analysis of adipocyte specific genes in 3T3-LI cells; format: cell-based, mouse; conditions: 3T3-LI treated for 7 days; BRL 49653 1 μM, LG 100268 1 μM, insulin 0.01 mg/ml
Description: A third measure of adipocyte differentiation is to examine regulation of gene expression. […] Northern blot analysis was used to dissect the molecular aspects of how retinoids effect target genes of differentiating adipocytes. PPARγ, lipoprotein lipase (LPL), and β-actin (loading control) mRNA levels were monitored after cells were treated with thiazolidinediones and retinoids.
Adipocyte specific genes were monitored via northern blot analysis.

[8] = BRL 0.1 μM + insulin 0.01 mg/ml, alone or plus ALRT 1057 1 μM or LGD 1069 1 μM
[9] = BRL 0.1 μM alone or plus ALRT 1057 1 μM, LGD 1069 1 μM or TTNPB 10 nM
[10] = BRL 10 μM + insulin 0.01 mg/ml, alone or plus ALRT 1057 1 μM, LGD 1069 1 μM or TTNPB 10 nM
[11] = BRL 10 μM alone or plus ALRT 1057 1 μM, LGD 1069 1 μM or TTNPB 10 nM
[12] = middle group r17-r20, headed BRL (0.1 μM), + insulin 0.01 mg/ml, alone or plus ALRT 1057 1 μM, LGD 1069 1 μM or TTNPB 10 nM
[13] = middle group r17-r20, headed BRL (0.1 μM), alone or plus ALRT 1057 1 μM, LGD 1069 1 μM or TTNPB 10 nM

Row | Compound | amount of adipocyte differentiation when used in combination with BRL 49653 ([1]; 3T3-LI) | Experiment B (+BRL + Insulin) % differentiated cells [2, 8] [%] | Experiment A (+BRL) % differentiated cells [2, 9] [%] | Experiment B (+BRL + Insulin) % differentiated cells [2, 10] [%] | Experiment A (+BRL) % differentiated cells [2, 11] [%] | effect on differentiation induced by BRL 49653 or BRL/insulin [2] | Experiment B (+BRL + Insulin) % differentiated cells [2, 12] [%] | Experiment A (+BRL) % differentiated cells [2, 13] [%] | Percent of Differentiated Cells [1] [%] | cells induced to differentiate into adipocytes ([1]; 3T3-LI) [%] | triglyceride accumulation [3] | increase in 2-DOG uptake [4] | increase of HDL-cholesterol levels in comparison to controls ([5]; LG 100268 20 mg/kg) | lowering of the level of glucose in comparison to control ([5]; daily gavage, by day 15) [%] | lipid droplets within the cytoplasm ([1]; 3T3-LI, LG 100268 at 1 μM) | triglyceride accumulation on addition of retinoid with BRL 49653 [3] | lowering of the level of triglycerides ([5]; daily gavage, LG 100268 20 mg/kg, BRL 49653 1 mg/kg, or combination, by day 15) [%] | lowering of the level of glucose in comparison to control [6] [%] | LPL and PPARγ mRNA levels, relative signal normalized to β-actin [7]
1 | CC1=C(/C=C/C(C)=C\C=C\C(C)=C\C(=O)O)C(C)(C)CCC1 [ALRT 1057, 9-cis retinoic acid] | increased the amount of differentiation | 65 | 45 | 99 | 80 | large increase in the amount of differentiation | 90 | 65 | – | – | – | – | – | – | – | – | – | – | –
2 | CN(CCOc1ccc(CC2SC(=O)NC2=O)cc1)c1ccccn1 (stereo not shown) [BRL 49653, 5-[[4-[2-(methyl-2-pyridinylamino)ethoxy]phenyl]methyl]-2,4-thiazolidinedione, reference compound] | – | – | – | – | – | – | – | – | 50 | 50 | induced some triglyceride accumulation | About 5 fold | equivalent level of increase | 40 | – | – | – | – | –
3 | Cc1cc2c(cc1C1(c3ccc(C(=O)O)cn3)CC1)C(C)(C)CCC2(C)C [LG 100268, 2-[1-(3,5,5,8,8-pentamethyl-5,6,7,8-tetrahydro-2-naphthyl)-cyclopropyl]-pyridine-5-carboxylic acid] | increased dramatically | – | – | – | – | – | – | – | 50 | 50 | largest response | About 2 fold | 20% | 40 | bigger redder lipid droplets | increased the amount of triglyceride accumulation | 46 | ~50 | –
4 | C=C(c1ccc(C(=O)O)cc1)c1cc2c(cc1C)C(C)(C)CCC2(C)C [LGD 1069] | increased the amount of differentiation | 90 | 45 | 99 | 80 | large increase in the amount of differentiation | 90 | 65 | – | – | – | – | – | – | – | increased the amount of triglyceride accumulation | – | – | –
5 | C/C(=C\c1ccc(C(=O)O)cc1)c1ccc2c(c1)C(C)(C)CCC2(C)C [TTNPB, reference compound] | – | – | 0.2 | 50 | 5 | inhibited the differentiation | 30 | 2 | – | – | – | – | – | – | – | – | – | – | –
6 | Insulin: insulin, used at 0.01 mg/ml | – | – | – | – | – | – | – | – | 20 | – | induced some triglyceride accumulation | – | – | – | – | – | – | – | three to five fold increase
